Measured values: patent US5612329A (priority 1995, dated 1997)

Key:
pBR322 DNA = type: biochemical; details: 37° C., 18 hr, pH 7.4
A549/ATCC cells = assay: In vitro cytotoxicity / cell growth inhibition, non-small cell lung cancer; type: cell-based; details: Homo sapiens, 48 hr, read-out: log10 G150 (converted)
Experimental: (§1) The anti-proliferative activities of the aziridinylpolyamines obtained in Synthesis Examples 1-4 were assessed by determining log10 G150 values against human cancer cell lines using the screening strategy described by Boyd et al, Drug Devel. Res. 34:91-109 (1995).
(§2) More specifically, the compounds were tested at a minimum of five concentrations at 10-fold dilutions using a 48 hr continuous exposure protocol. Each cell line shown in Table 1 below was inoculated onto microtiter plates. After a pre-incubation period of 24-48 hr at 37° C., the test compounds were added, and the culture was incubated for an additional 48 hr at 37° C. Cell viability or cell growth end-point determinations were performed by fixation of the cells, followed by staining with sulforhodamine B (Monks et al, J. Natl. Cancer Inst., 83:757-766 (1991)).

EKVX cells = assay: as above; type: cell-based; details: Homo sapiens, 48 hr, read-out: log10 G150 (converted)
Experimental: as §1, §2

HOP-62 cells = assay: as above; type: cell-based; details: Homo sapiens; HOP-62, non-small cell lung cancer, 48 hr; read-out: log10 G150 (converted)
Experimental: as §1, §2

HOP-92 cells = assay: as above; type: cell-based; details: Homo sapiens; HOP-92, non-small cell lung cancer, 48 hr; read-out: log10 G150 (converted)
Experimental: as §1, §2

NCl-H226 cells = assay: as above; type: cell-based; details: Homo sapiens, 48 hr, read-out: log10 G150 (converted)
Experimental: as §1, §2

NCl-H23 cells = assay: as above; type: cell-based; details: Homo sapiens, 48 hr, read-out: log10 G150 (converted)
Experimental: as §1, §2

NCl-H322M cells = assay: as above; type: cell-based; details: Homo sapiens, 48 hr, read-out: log10 G150 (converted)
Experimental: as §1, §2

NCl-H460 cells = assay: as above; type: cell-based; details: Homo sapiens, 48 hr, read-out: log10 G150 (converted)
Experimental: as §1, §2

NCl-H522 cells = assay: as above; type: cell-based; details: Homo sapiens, 48 hr, read-out: log10 G150 (converted)
Experimental: as §1, §2

786-0 cells = assay: In vitro cytotoxicity / cell growth inhibition, renal cancer; type: cell-based; details: Homo sapiens; 786-0, renal cancer, 48 hr; read-out: log10 G150 (converted)
Experimental: as §1, §2

A498 cells = assay: as above; type: cell-based; details: Homo sapiens, 48 hr, read-out: log10 G150 (converted)
Experimental: as §1, §2

ACHN cells = assay: as above; type: cell-based; details: Homo sapiens, 48 hr, read-out: log10 G150 (converted)
Experimental: as §1, §2

CAKI-1 cells = assay: as above; type: cell-based; details: Homo sapiens; CAKI-1, renal cancer, 48 hr; read-out: log10 G150 (converted)
Experimental: as §1, §2

RXF-393 cells = assay: as above; type: cell-based; details: Homo sapiens; RXF-393, renal cancer, 48 hr; read-out: log10 G150 (converted)
Experimental: as §1, §2

SN12C cells = assay: as above; type: cell-based; details: Homo sapiens, 48 hr, read-out: log10 G150 (converted)
Experimental: as §1, §2

TK-10 cells = assay: as above; type: cell-based; details: Homo sapiens; TK-10, renal cancer, 48 hr; read-out: log10 G150 (converted)
Experimental: as §1, §2

UO-31 cells = assay: as above; type: cell-based; details: Homo sapiens; UO-31, renal cancer, 48 hr; read-out: log10 G150 (converted)
Experimental: as §1, §2

L1210 murine leukemia = assay: In vivo testing in mice bearing L1210 leukemia; set-up: species or system female CD2 F1 mice; details: for LD20: footnote e
Text: Virus-free, adult female CD2 F1 mice were obtained from the Animal Genetics and Production Branch of the National Cancer Institute. To minimize exogenous infection, mice were housed in microisolator caging and handled in accordance with the NIH Guide for the care and use of laboratory animals (NIH No. 85-23, 1985). The mice were randomized to groups of 5 mice per group, except titration groups which consisted of 10 mice per group, and the untreated control group which consisted of 20 mice.
On day 0, the mice were inoculated intraperitoneally with 1.0×10^5 L1210 mouse leukemia cells/mouse for the treatment and control groups. The titration groups received 1.0×10^4 to 1.0×10^6 L1210 cells/mouse.
Dosing solutions were freshly prepared just prior to treatment by dissolving 1,12-diaziridinyl-4,9-diazadodecane in 25 mM sodium phosphate buffer (pH 7.4), giving concentrations of 0.18-0.6 mg/ml.
Beginning on day 1, dosing solutions were administered intravenously by tail vein at 0.01 ml/g of body weight. The doses of 1,12-diaziridinyl-4,9-diazadodecane were 6.0, 4.0, 2.7, and 1.8 mg/kg. The dosing schedule was: a single dose on day 1; 3 doses every four days beginning on day 1; 2 doses every seven days beginning on day 1; or 2 doses on days 1 and 2.
Percent increase in lifespan was calculated using the formula, (T-C/C)·100, where T is the median day of death for the various treatment groups, and C is the median day of death for the control group.
The net log cell kill is an estimate of the number of cells that are killed by the drug at each specific dose and schedule, and was calculated by the formula, ((T-C)-Duration of Treatment)·0.3/Tumor Doubling Time.

For C(CCNCCCN1CC1)CNCCCN1CC1 [Synthesis Example 1, 1,12-Diaziridinyl-4,9-diazadodecane], which “concentration at which DNA was found to be cross-linked” value (pBR322 DNA) is on record?
The value was at most 0.1 µM.

What about the GI50 (A549/ATCC cells) of the same compound?
The GI50 was 891 nM.

And the GI50 (EKVX cells)?
The GI50 was 3470 nM.

And the GI50 (HOP-62 cells)?
The GI50 was 58.9 nM.

And the GI50 (HOP-92 cells)?
The GI50 was 219 nM.

And the GI50 (NCl-H226 cells)?
The GI50 was 724 nM.

And the GI50 (NCl-H23 cells)?
Its GI50 is 263 nM.

What about the GI50 (NCl-H322M cells) of the same compound?
The GI50 was 4570 nM.

And the GI50 (NCl-H460 cells)?
Its GI50 is 363 nM.

What about the GI50 (NCl-H522 cells) of the same compound?
The GI50 was 427 nM.

And the GI50 (786-0 cells)?
Its GI50 is 11.2 nM.

What about the GI50 (A498 cells) of the same compound?
Its GI50 is 1820 nM.

And the GI50 (ACHN cells)?
The GI50 was 141 nM.

And the GI50 (CAKI-1 cells)?
The GI50 was 18.6 nM.

And the GI50 (RXF-393 cells)?
The GI50 was 138 nM.

What about the GI50 (SN12C cells) of the same compound?
Its GI50 is 135 nM.

What about the GI50 (TK-10 cells) of the same compound?
The GI50 was 3240 nM.

And the GI50 (UO-31 cells)?
The GI50 was 575 nM.

What about the “Net log cell kill (NLCK)” value (L1210 murine leukemia; 1.8 mg/kg i.v. on day 1) of the same compound?
Its value is 4.

And the “Percent increase in life span (% ILS)” value (L1210 murine leukemia; 1.8 mg/kg i.v. on day 1)?
Its value is 57%.

And the “Survival (median day of death)” value (L1210 murine leukemia; 1.8 mg/kg i.v. on day 1)?
Its value is 11 days.

And the “Net log cell kill (NLCK)” value (L1210 murine leukemia; 1.8 mg/kg i.v. on days 1, 2)?
Its value is 6.

What about the “Percent increase in life span (% ILS)” value (L1210 murine leukemia; 1.8 mg/kg i.v. on days 1, 2) of the same compound?
The value was 100%.

What about the “Survival (median day of death)” value (L1210 murine leukemia; 1.8 mg/kg i.v. on days 1, 2) of the same compound?
The value was 14 days.

What about the “Net log cell kill (NLCK)” value (L1210 murine leukemia; 1.8 mg/kg i.v. on days 1, 5, 9) of the same compound?
The value was 2.

And the “Percent increase in life span (% ILS)” value (L1210 murine leukemia; 1.8 mg/kg i.v. on days 1, 5, 9)?
Its value is 143%.

And the “Survival (median day of death)” value (L1210 murine leukemia; 1.8 mg/kg i.v. on days 1, 5, 9)?
The value was 17 days.

And the “Net log cell kill (NLCK)” value (L1210 murine leukemia; 1.8 mg/kg i.v. on days 1, 8)?
Its value is -1.

What about the “Percent increase in life span (% ILS)” value (L1210 murine leukemia; 1.8 mg/kg i.v. on days 1, 8) of the same compound?
The value was 86%.

What about the “Survival (median day of death)” value (L1210 murine leukemia; 1.8 mg/kg i.v. on days 1, 8) of the same compound?
Its value is 13 days.

What about the “Net log cell kill (NLCK)” value (L1210 murine leukemia; 2.7 mg/kg i.v. on day 1) of the same compound?
Its value is 3.

And the “Percent increase in life span (% ILS)” value (L1210 murine leukemia; 2.7 mg/kg i.v. on day 1)?
Its value is 42%.

And the “Survival (median day of death)” value (L1210 murine leukemia; 2.7 mg/kg i.v. on day 1)?
The value was 10 days.

What about the “Net log cell kill (NLCK)” value (L1210 murine leukemia; 2.7 mg/kg i.v. on days 1, 2) of the same compound?
The value was 6.

And the “Percent increase in life span (% ILS)” value (L1210 murine leukemia; 2.7 mg/kg i.v. on days 1, 2)?
The value was 100%.

What about the “Survival (median day of death)” value (L1210 murine leukemia; 2.7 mg/kg i.v. on days 1, 2) of the same compound?
Its value is 14 days.

And the “Net log cell kill (NLCK)” value (L1210 murine leukemia; 2.7 mg/kg i.v. on days 1, 5, 9)?
Its value is 4.

What about the “Percent increase in life span (% ILS)” value (L1210 murine leukemia; 2.7 mg/kg i.v. on days 1, 5, 9) of the same compound?
Its value is 171%.

What about the “Survival (median day of death)” value (L1210 murine leukemia; 2.7 mg/kg i.v. on days 1, 5, 9) of the same compound?
Its value is 19 days.

And the “Net log cell kill (NLCK)” value (L1210 murine leukemia; 2.7 mg/kg i.v. on days 1, 8)?
The value was 2.

And the “Percent increase in life span (% ILS)” value (L1210 murine leukemia; 2.7 mg/kg i.v. on days 1, 8)?
The value was 129%.

What about the “Survival (median day of death)” value (L1210 murine leukemia; 2.7 mg/kg i.v. on days 1, 8) of the same compound?
Its value is 16 days.

What about the “Net log cell kill (NLCK)” value (L1210 murine leukemia; 4.0 mg/kg i.v. on day 1) of the same compound?
The value was 4.

What about the “Percent increase in life span (% ILS)” value (L1210 murine leukemia; 4.0 mg/kg i.v. on day 1) of the same compound?
Its value is 57%.

What about the “Survival (median day of death)” value (L1210 murine leukemia; 4.0 mg/kg i.v. on day 1) of the same compound?
The value was 11 days.

And the “Net log cell kill (NLCK)” value (L1210 murine leukemia; 4.0 mg/kg i.v. on days 1, 2)?
Its value is -3.

What about the “Percent increase in life span (% ILS)” value (L1210 murine leukemia; 4.0 mg/kg i.v. on days 1, 2) of the same compound?
Its value is -29%.

And the “Survival (median day of death)” value (L1210 murine leukemia; 4.0 mg/kg i.v. on days 1, 2)?
The value was 5 days.

And the “Net log cell kill (NLCK)” value (L1210 murine leukemia; 4.0 mg/kg i.v. on days 1, 5, 9)?
The value was -7.

What about the “Percent increase in life span (% ILS)” value (L1210 murine leukemia; 4.0 mg/kg i.v. on days 1, 5, 9) of the same compound?
Its value is 14%.

And the “Survival (median day of death)” value (L1210 murine leukemia; 4.0 mg/kg i.v. on days 1, 5, 9)?
Its value is 8 days.

And the “Net log cell kill (NLCK)” value (L1210 murine leukemia; 4.0 mg/kg i.v. on days 1, 8)?
The value was 4.

What about the “Percent increase in life span (% ILS)” value (L1210 murine leukemia; 4.0 mg/kg i.v. on days 1, 8) of the same compound?
Its value is 157%.

And the “Survival (median day of death)” value (L1210 murine leukemia; 4.0 mg/kg i.v. on days 1, 8)?
Its value is 18 days.

And the “Net log cell kill (NLCK)” value (L1210 murine leukemia; 6.0 mg/kg i.v. on day 1)?
The value was -1.

What about the “Percent increase in life span (% ILS)” value (L1210 murine leukemia; 6.0 mg/kg i.v. on day 1) of the same compound?
The value was -14%.

What about the “Survival (median day of death)” value (L1210 murine leukemia; 6.0 mg/kg i.v. on day 1) of the same compound?
Its value is 6 days.

What about the LD20 (L1210 murine leukemia; i.v. on day 1) of the same compound?
Its LD20 is 4.0 mg/kg.

And the LD20 (L1210 murine leukemia; i.v. on days 1, 2)?
The LD20 was 2.7 mg/kg.

What about the LD100 (L1210 murine leukemia; i.v. on days 1, 2, footnote f) of the same compound?
Its LD100 is 4.0 mg/kg.

And the LD20 (L1210 murine leukemia; i.v. on days 1, 5, 9)?
Its LD20 is 4.0 mg/kg.

What about the LD20 (L1210 murine leukemia; i.v. on days 1, 8) of the same compound?
The LD20 was 4.0 mg/kg.

What about the “increase in the life span” value (L1210 murine leukemia; i.v., doses of less than 2.7 mg/kg, days 1, 5, and 9) of the same compound?
Its value is “significant increase in the life span”.
